Source: BindingDB's records for doi:10.1021/acsmedchemlett.3c00041 (Insilico Medicine Hong Kong, 2023)

Target: Tyrosine-protein kinase JAK1 (Homo sapiens, UniProt P23458)
Experiment: Inhibition of JAK1 (unknown origin)

Sequence of Tyrosine-protein kinase JAK1 (P23458 whole entry): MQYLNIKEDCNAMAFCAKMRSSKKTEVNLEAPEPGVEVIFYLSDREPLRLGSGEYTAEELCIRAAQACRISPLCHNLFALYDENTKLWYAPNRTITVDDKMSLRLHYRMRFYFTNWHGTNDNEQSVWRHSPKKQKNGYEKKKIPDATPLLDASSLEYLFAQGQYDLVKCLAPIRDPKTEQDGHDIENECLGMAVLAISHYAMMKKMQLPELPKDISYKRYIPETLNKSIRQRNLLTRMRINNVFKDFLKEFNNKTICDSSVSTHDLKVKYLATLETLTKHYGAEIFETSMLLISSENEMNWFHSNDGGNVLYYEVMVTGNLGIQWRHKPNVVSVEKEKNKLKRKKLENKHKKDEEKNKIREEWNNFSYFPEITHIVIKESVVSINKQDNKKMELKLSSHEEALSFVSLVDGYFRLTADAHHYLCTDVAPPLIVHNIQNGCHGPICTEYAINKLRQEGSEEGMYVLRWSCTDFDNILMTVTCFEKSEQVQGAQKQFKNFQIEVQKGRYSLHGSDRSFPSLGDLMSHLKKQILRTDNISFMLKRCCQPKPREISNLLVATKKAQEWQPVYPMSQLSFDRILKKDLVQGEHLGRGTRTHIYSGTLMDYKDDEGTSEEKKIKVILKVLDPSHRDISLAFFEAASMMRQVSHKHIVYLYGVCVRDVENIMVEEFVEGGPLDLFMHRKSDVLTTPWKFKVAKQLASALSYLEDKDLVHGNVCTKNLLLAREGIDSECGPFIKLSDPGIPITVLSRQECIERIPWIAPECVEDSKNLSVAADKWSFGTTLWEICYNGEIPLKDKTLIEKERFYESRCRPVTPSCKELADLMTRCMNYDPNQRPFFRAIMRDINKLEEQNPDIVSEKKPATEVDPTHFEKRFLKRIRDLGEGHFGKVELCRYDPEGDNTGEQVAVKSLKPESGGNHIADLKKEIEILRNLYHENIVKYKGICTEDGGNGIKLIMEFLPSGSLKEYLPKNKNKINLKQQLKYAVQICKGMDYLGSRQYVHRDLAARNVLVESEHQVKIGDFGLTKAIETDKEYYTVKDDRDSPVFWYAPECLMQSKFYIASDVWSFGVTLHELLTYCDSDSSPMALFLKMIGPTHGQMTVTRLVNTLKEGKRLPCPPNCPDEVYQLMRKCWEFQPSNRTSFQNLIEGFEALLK

Row | IC50 | Compound
1 | 0.5 µM | CCC1CN(C(=O)NCC(F)(F)F)CC1NCc1ccc(C)nc1-c1cnc2[nH]ccc2c1 (stereo not drawn)
2 | 0.93 µM | CCC1CN(C(=O)NCC(F)(F)F)CC1N(C)c1ncnc2[nH]ccc12 (stereo not drawn)
3 | 9.6 µM | CCC1CN(C(=O)NCC(F)(F)F)CC1c1nc(N)nc2[nH]ccc12 (stereo not drawn)
